≈ marks a conversion by molar mass, not a printed value.
How the values were obtained:
S. pyogenes 19615 = assay: MIC, agar incorporation method; assay type: cell-based, Streptococcus pyogenes; conditions: S. pyogenes 19615; agar incorporation
Excerpt: (§1) The compounds of the invention display antibacterial activity when tested by the agar incorporation method. The following minimum inhibitory concentrations (μg/ml) were obtained for representative compounds of the invention which are given below in the following tables.
(§2) • 1) S.aureus ATCC 25923—Staphylococus aureus ATCC 25923 • 2) MRSA 15187—Methicillin Resistant Staphylococcus aureus • 3) Ent. faecalis ATCC 29212—Enterococcus faecalis ATCC 29212 • 4) Ent. faecium 6A—Enterococcus faecium 6A Van®, Cipro® • 5) Strep. pne. ATCC 6303—Streptococcus pneumoniae ATCC 6303 • 6) Strep. pyog. ATCC 19615—Streptococcus pyogenes • 7) S. epidermidis—Staphylococcus epidermidis ATCC 12228
(§3) Briefly, the compounds were dissolved in DMSO and doubling dilution of the compounds were incorporated into Meuller Hilton agar before solidification. Inoculum was prepared by suspending 4 to 5 colonies into 5 ml of normal saline solution and adjusting the turbidity to 0.5 Macfarland turbidity standard tables (1.5×10^8 CFU/ml), after appropriate dilutions, 10^4 CFU/spot was transfered into the surface of dried plate and incubated for 18 hours (24 hours for MRSN studies). The concentration showing no growth of the inoculated culture was recorded as the MIC. Appropriate ATCC standard strains were simultaneously tested and result recorded only when the MIC's against standard antibiotics were within the acceptable range.

G+ve = assay: Summary of in vitro activity (MIC) against G+ve bacteria; assay type: cell-based
Protocol: as §1, §3

E. faecalis 29212 = assay: MIC, agar incorporation method; assay type: cell-based, Enterococcus faecalis; conditions: E. faecalis 29212; agar incorporation
Excerpt: as §1, §2, §3

S. pneumoniae = assay: Summary of in vitro activity (MIC) against S. pneumoniae; assay type: cell-based, Streptococcus pneumoniae; conditions: S. pneumoniae
Protocol: as §1, §3

S. aureus = assay: Summary of in vitro activity (MIC) against S. aureus; assay type: cell-based, Staphylococcus aureus; conditions: S. aureus
Protocol: as §1, §3

E. faecalis = assay: Summary of in vitro activity (MIC) against E. faecalis; assay type: cell-based, Enterococcus faecalis; conditions: E. faecalis
Protocol: as §1, §3

S. aureus 25923 = assay: MIC, agar incorporation method; assay type: cell-based, Staphylococcus aureus; conditions: S. aureus 25923; agar incorporation
Excerpt: as §1, §2, §3

MRSA 15187 = assay: MIC, agar incorporation method; assay type: cell-based, Staphylococcus aureus; conditions: MRSA 15187; agar incorporation
Excerpt: as §1, §2, §3

S. pneum AB 34 = assay: MIC, agar incorporation method; assay type: cell-based, Streptococcus pneumoniae; conditions: S. pneum AB 34; agar incorporation
Protocol: as §1, §3

S. pneum 6303 = assay: MIC, agar incorporation method; assay type: cell-based, Streptococcus pneumoniae; conditions: S. pneum 6303; agar incorporation
Excerpt: as §1, §2, §3

MRSA 33 = assay: MIC, agar incorporation method; assay type: cell-based, Staphylococcus aureus; conditions: MRSA 33; agar incorporation
Protocol: as §1, §3

MRSA 562 = assay: MIC, agar incorporation method; assay type: cell-based, Staphylococcus aureus; conditions: MRSA 562
Protocol: as §1, §3

VRE 6A = assay: MIC, agar incorporation method; assay type: cell-based, Enterococcus faecium; conditions: VRE 6A; agar incorporation
Excerpt: as §1, §2, §3

Row | SMILES | MIC (S. pyogenes 19615) [µg/mL] | MIC (E. faecalis 29212) [µg/mL] | MIC (S. aureus 25923) [µg/mL] | MIC (MRSA 15187) [µg/mL] | MIC (S. pneum AB 34) [µg/mL] | MIC (S. pneum 6303) [µg/mL] | MIC (MRSA 33) [µg/mL] | MIC (MRSA 562; agar incorporation, Table 1) [µg/mL] | MIC (VRE 6A) [µg/mL] | also measured
1 | CC(=O)NC[C@H]1CN(c2ccc(N3CCC(N(C)Cc4ccc([N+](=O)[O-])o4)CC3)c(F)c2)C(=O)O1 [Compound No. 50, (S)-N-[[3-[4-[4-(N-methyl-N-2-furyl(5-nitro)methyl)-aminopiperidine-1-yl]-3-fluorophenyl]-2oxo-oxazolidin-5-yl]methyl]acetamide] | 0.125 (≈ 0.255 µM) | 0.5 (≈ 1.02 µM) | 1 (≈ 2.04 µM) | 1 (≈ 2.04 µM) | 2 (≈ 4.09 µM) | 0.5 (≈ 1.02 µM) | 1 (≈ 2.04 µM) | 0.5 (≈ 1.02 µM) | 0.25 (≈ 0.511 µM) | MIC50 (G+ve; G+ve, Number 49): 1 µg/mL (≈ 2.04 µM); MIC90 (G+ve; G+ve, Number 49): 2 µg/mL (≈ 4.09 µM); Geometric Mean of in vitro activity (MIC) (G+ve; Gram +ve): 0.72 µg/mL; Geometric Mean of in vitro activity (MIC) (S. pneumoniae): 1.41 µg/mL; MIC50 (S. pneumoniae; Number 19): 1 µg/mL (≈ 2.04 µM); MIC90 (S. pneumoniae; Number 19): 2 µg/mL (≈ 4.09 µM); Geometric Mean of in vitro activity (MIC) (S. aureus): 1 µg/mL; MIC50 (S. aureus; Number 8): 1 µg/mL (≈ 2.04 µM); MIC90 (S. aureus; Number 8): 2 µg/mL (≈ 4.09 µM); Geometric Mean of in vitro activity (MIC) (E. faecalis): 0.42 µg/mL; MIC50 (E. faecalis; Number 7): 0.5 µg/mL (≈ 1.02 µM); MIC90 (E. faecalis; Number 7): 1 µg/mL (≈ 2.04 µM); MIC (MRSA 562; Table 5): 0.5 µg/mL (≈ 1.02 µM)
2 | CC(=O)NC[C@H]1CN(c2ccc(N3C[C@@H]4[C@H](C3)[C@H]4N(C)Cc3ccc([N+](=O)[O-])s3)c(F)c2)C(=O)O1 [Compound No. 34, (S)-N-[[3-[3-Fluoro[4-[3-(1α,5α,6α)-6-[N-(5-nitro-2-thienyl-methyl)-N-methyl]amino]-3-azabicyclo-[3.1.0]hexane]phenyl]-2-oxo-5-oxazolidinyl]methyl]acetamide] | 2 (≈ 3.97 µM) | 1 (≈ 1.99 µM) | 1 (≈ 1.99 µM) | 1 (≈ 1.99 µM) | 4 (≈ 7.94 µM) | 4 (≈ 7.94 µM) | 1 (≈ 1.99 µM) | 1 (≈ 1.99 µM) | 1 (≈ 1.99 µM) | 
3 | CC(=O)NC[C@H]1CN(c2ccc(N3CCN(Cc4ccc(C5OCCCO5)o4)CC3)c(F)c2)C(=O)O1 [Compound No. 66] | 8 (≈ 15.9 µM) | 16 (≈ 31.8 µM) | 2 (≈ 3.98 µM) | 2 (≈ 3.98 µM) | 8 (≈ 15.9 µM) | 8 (≈ 15.9 µM) | 2 (≈ 3.98 µM) | 2 (≈ 3.98 µM) | 16 (≈ 31.8 µM) | 
4 | CC(=O)NC[C@H]1CN(c2ccc(N3CCN(Cc4ccc(Br)s4)CC3)c(F)c2)C(=O)O1 [Compound No. 27] | 1 (≈ 1.96 µM) | 2 (≈ 3.91 µM) | 2 (≈ 3.91 µM) | 2 (≈ 3.91 µM) | 0.5 (≈ 0.978 µM) | 2 (≈ 3.91 µM) | 2 (≈ 3.91 µM) | 2 (≈ 3.91 µM) | 4 (≈ 7.82 µM) | 
5 | CC(=O)NC[C@H]1CN(c2ccc(N3C[C@@H]4[C@@H](CN(C)C(=O)Cc5cccs5)[C@@H]4C3)c(F)c2)C(=O)O1 [Compound No. 38, (S)-N-[[3-[3-Fluoro[4-[3-(1α,5α,6α)-6-[N-(2-thiopheneacetyl)-N-methyl]aminomethyl]-3-azabicyclo-[3.1.0]hexane]phenyl]-2-oxo-5-oxazolidinyl]methyl]acetamide] | 1 (≈ 2 µM) | 4 (≈ 7.99 µM) | 4 (≈ 7.99 µM) | 4 (≈ 7.99 µM) | 1 (≈ 2 µM) | 1 (≈ 2 µM) | 4 (≈ 7.99 µM) | 4 (≈ 7.99 µM) | 4 (≈ 7.99 µM) | 
6 | CC(=O)NC[C@H]1CN(c2ccc(N3CCN(Cc4cccn4C)CC3)c(F)c2)C(=O)O1 [Compound No. 22, (S)-N[[3-[3-Fluoro-4-[N-1[4-{2-pyrrole(1-methyl)methyl}]-piperazinyl]phenyl]2-oxo-5-oxazolidinyl]methyl]acetamide] | 1 (≈ 2.33 µM) | 8 (≈ 18.6 µM) | 2 (≈ 4.66 µM) | 8 (≈ 18.6 µM) | 1 (≈ 2.33 µM) | 1 (≈ 2.33 µM) | 8 (≈ 18.6 µM) | 4 (≈ 9.31 µM) | 8 (≈ 18.6 µM) | 

— patent publication US6956040B2, “Oxazolidinone piperazinyl derivatives as potential antimicrobials” (Ranbaxy Laboratories Limited, priority 2001, dated 2005)
